EC50 data for 31 molecules are collected here from US9988361B2, “Anti-enterovirus 71 thiadiazolidine derivative” (JIANGSU KANION PHARMACEUTICAL CO. LTD, priority 2014, dated 2018).

pEC50: −log10 of the molar value.

The subject of the assay is EV71 virus strain Shenzhen/120F1/09. As to the kind of experiment: EV71 in-vitro cytopathic effect (CPE) test. The assay is classed as cell-based, RD cells of human rhabdomyoma. Conditions: Enterovirus A, 72 h; RD cells, EV71 100 TCID50, 3 days, CCK8 readout; read-out: EC50 by EC71 CPE test, EV71. The protocol:
Test of EV71 In-Vitro Cytopathic Effect (CPE) To test the in-vitro antiviral activity and cytotoxicity of a compound to HFMD virus EV71 by means of cytopathic effect (CPE) test. […] Cell line: RD cells of human rhabdomyoma • 3. Cell culture media: DMEM medium added with 10% serum, Penicillin/Streptomycin and L-[…]×) • 4. […] Cell inoculation: digest off the RD cells from the attached state, then dilute them with culture medium to a density of 80000/ml and inoculate 100 μl into the micro wells the 96-well plate. • 2. Dilution of compound: • Step 1: prepare the dry powder of a compound to test into a 10 mM solution in DMSO. Then dilute the compound by three times to eight concentration points. Dilute the reference compounds with the same method. • Step 2: further dilute the diluted solution of the compound in DMSO with cell culture medium. Add 10 μl DMSO solution for each well into 240 μl culture medium. • 3. Add the diluted compound solution by 50 μl each well into the 96-well plate inoculated with cells (double holes, final concentration of DMSO is 1%). • 4. Dilution of virus: dilute EV71 virus solution by 10000 times to a concentration of 100 TCID50/50 μl/. Add the diluted virus solution by 50 μl each well into the 96-well plate. Prepare another 96-well plate to replace the virus with culture medium and similarly inoculate the cells. Add the compound to test the toxicity of compound on cells. • 5. Cultivate the 96-well plate 3 days at the conditions of 37° C. and 5% CO2. • 6. EC50 and CC50 tests: add the cellular activity test reagent CCK8 into the micro-wells by 20 μl/well. Use ELIASA to read the absorbancy at the wavelength of 450 nm and 630 nm. • 7.
In general terms: Protection from cytopathic effect is a common read-out in antiviral testing.
The term pEC50 denotes the EC50 on a negative log10 scale, so that one unit is a factor of ten. Regarding `O=S1(=O)N(CCCCCOc2ccc(-c3ccc(Cl)cc3)cc2)CCN1c1ccncc1` [Embodiment 6, 2-(5-((4′-chloro-[1,1′-biphenyl]-4-yl)oxy)pentyl)-5-(pyridin-4-yl)-1,2,5-thiadiazolidine-1,1-dioxide], the pEC50 was 7.00 to 7.30. The figure for `CCO/N=C/c1ccc(OCCCCCN2CCN(c3ccncc3)S2(=O)=O)cc1` [Embodiment 7] is more than 7.30; for `CCO/N=C1\CCc2cc(OCCCCCN3CCN(c4ccncc4)S3(=O)=O)ccc21` [Embodiment 8] it is 7.00 to 7.30; for `CCc1nc(-c2ccc(OCCCCCN3CCN(c4ccncc4)S3(=O)=O)cc2)no1` [Embodiment 10, 2-(5-(4-(5-ethyl-1,2,4-oxadiazol-3-yl)-phenoxy)-pentyl)-5-(pyridin-4-yl)-1,2,5-thiadiazolidine-1,1-dioxide] it is 7.00 to 7.30.

With `CCn1nnc(-c2ccc(OCCCCCN3CCN(c4ccncc4)S3(=O)=O)cc2)n1` [Embodiment 11, 2-(5-(4-(2-ethyl-2H-tetrazol-5-yl)-phenoxy)pentyl)-5-(pyridin-4-yl)-1,2,5-thiadiazolidine-1,1-dioxide], the pEC50 was 7.00 to 7.30. The figure for `CCOc1noc2cc(OCCCCCN3CCN(c4ccncc4)S3(=O)=O)ccc12` [Embodiment 12, 2-(5-((3-ethoxy-benzo[d]isoxazole-6-yl)-oxy)pentyl)-5-(pyridin-4-yl)-1,2,5-thiadiazolidine-1,1-dioxide] is more than 7.30; for `O=S1(=O)N(CCOCCOc2ccc(-c3ccc(Cl)cc3)cc2)CCN1c1ccncc1` [Embodiment 13, 2-(2-(2-((4′-chloro-[1,1′-biphenyl]-4-yl)oxy)ethoxy)ethyl)-5-(pyridin-4-yl)-1,2,5-thiadiazolidine-1,1-dioxide] it is 6.30 to 7.00; for `CCO/N=C/c1ccc(OCCC(C)CCN2CCN(c3ccncc3)S2(=O)=O)cc1` (stereo not shown) [Embodiment 14, (E)-4-((5-(1,1-dioxo-5-(pyridin-4-yl)-1,2,5-thiadiazolidine-2-yl)-3-methyl-pentyl)-oxy)-benzaldehyde-O-ethyloxime] it is more than 7.30. The figure for `CCOc1noc2cc(OCCC(C)CCN3CCN(c4ccncc4)S3(=O)=O)ccc12` (stereo not shown) [Embodiment 15, 2-(5-((3-ethoxy-benzo[d]isoxazole-6-yl)-oxy)-3-methyl-pentyl)-5-(pyridin-4-yl)-1,2,5-thiadiazolidine-1,1-dioxide] is more than 7.30; for `Nc1cc(N2CCN(CCCCCOc3ccc(-c4ccc(Cl)cc4)cc3)S2(=O)=O)ccn1` [Embodiment 16, 2-(2-aminopyridine-4-yl)-5-(5-((4′-chloro-[1,1′-biphenyl]-4-yl)-oxy)-pentyl)-1,2,5-thiadiazolidine-1,1-dioxide] it is more than 7.30. For `CCO/N=C/c1ccc(OCCC(C)CCN2CCN(c3ccnc(N)c3)S2(=O)=O)cc1` (stereo not shown) [Embodiment 17, (E)-4-((5-(5-(2-amino-pyridin-4-yl)-1,1-dioxo-1,2,5-thiadiazolidine-2-yl)-3-methyl-pentyl)-oxy)-benzaldehyde-O-ethylketoxime], the pEC50 was more than 7.30. The figure for `CCOc1noc2cc(OCCCCCN3CCN(c4ccnc(NC)c4)S3(=O)=O)ccc12` [Embodiment 18, 2-(5-((3-ethoxy-benzo[d]isoxazol-6)-oxo)-pentyl)-5-(2-(methylamino)-pyridine-4)-1,2,5-thiadiazoline-1,1-dioxide] is more than 7.30; for `O=S1(=O)N(CCCCC2CCc3cc(-c4ccc(Cl)cc4)ccc3O2)CCN1c1ccncc1` (stereo not shown) [Embodiment 19, 2-(4-(6-(4-chlorophenyl)-chroman-2-yl)-butyl)-5-(pyridin-4-yl)-1,2,5-thiadiazolidine-1,1-dioxide] it is 6.30 to 7.00. The figure for `CCO/N=C/c1ccc2c(c1)CCC(CCCCN1CCN(c3ccncc3)S1(=O)=O)O2` (stereo not shown) [Embodiment 21, (E)-2-(4-(1,1-dioxo-5-(pyridin-4-yl)-1,2,5-thiadiazolidine-2-yl)-butyl)-chroman-6-formaldehyde-O-ethyloxime] is more than 7.30; for `Nc1cc(N2CCN(CCCCCOc3ccc(C=O)cc3)S2(=O)=O)ccn1` [Embodiment 24, 4-((5-(5-(2-aminopyridin-4-yl)-1,1-dioxide-1,2,5-thiadiazolidine-2-yl)-pentyl)-oxy)-benzaldehyde] it is 6.00 to 6.30; for `CCO/N=C/c1ccc(OCCCCCCN2CCN(c3ccnc(N)c3)S2(=O)=O)cc1` [Embodiment 25, (E)-4-((6-(5-(2-aminopyridin-4-yl)-1,1-dioxide-1,2,5-thiadiazolidine-2-yl)-hexyl)-oxy)-benzaldehyde-O-ethyl ketoxime] it is more than 7.30. The figure for `CCO/N=C/c1ccc(OCCCCN2CCN(c3ccnc(N)c3)S2(=O)=O)cc1` [Embodiment 26] is 6.30 to 7.00. For the molecule `CCn1nnc(-c2ccc(OCCCCCN3CCN(c4ccnc(N)c4)S3(=O)=O)cc2)n1` [Embodiment 27, 4-(5-(5-(4-(2-ethyl-tetrazol-5-yl)-phenoxy)-pentyl)-1,1-dioxide-1,2,5-thiadiazolidine-2-yl)-pyridin-2-amine], the pEC50 was more than 7.30.

As for `CCOc1noc2cc(OCCCCCN3CCN(c4ccnc(N)c4)S3(=O)=O)ccc12` [Embodiment 28, 4-(5-(5-((3-ethoxy-1,2-benzoxazol-6-yl)-oxy)-pentyl)-1,1-dioxide-1,2,5-thiadiazolidine-2-yl)-pyridin-2-amine], the pEC50 was more than 7.30.

In the case of `CCO/N=C1\CCc2cc(OCCC(C)(C)CCN3CCN(c4ccnc(N)c4)S3(=O)=O)ccc21` [Embodiment 30, (E)-2-(2-amino-pyridin-4-yl)-5-(5-((1-(ethoxy-imino)-2,3-dihydro-1H-inden-5-yl)-oxy)-3,3-dimethylpentyl)-1,2,5-thiadiazolidine-1,1-dioxide], the pEC50 is more than 7.30. The figure for `CCO/N=C1\CCc2cc(OCCC(F)(F)CCN3CCN(c4ccnc(N)c4)S3(=O)=O)ccc21` [Embodiment 31, (E)-2-(2-amino-pyridin-4-yl)-5-(5-((1-(ethoxy-imino)-2,3-dihydro-1H-inden-5-yl)-oxy)-3,3-difluoropentyl)-1,2,5-thiadiazolidine-1,1-dioxide] is 6.30 to 7.00; for `CCO/N=C/c1ccc(OCCCCCN2CCN(c3ccnc(C)c3)S2(=O)=O)cc1` [Embodiment 32, (E)-4-((5-(5-(2-methylpyridin-4-yl)-1,1-dioxide-1,2,5-thiadiazol-2-yl)-pentyl)-oxy)-benzaldehyde-O-ethyl ketoxime] it is more than 7.30. The figure for `CCO/N=C/c1ccc(OCCCCCN2CCN(c3ccc(C)nn3)S2(=O)=O)cc1` [Embodiment 33, (E)-4-((5-(5-(6-methyl-pyridazin-3-yl)-1,1-dioxide-1,2,5-thiadiazolidine-2-yl)-pentyl)-oxy)-benzaldehyde-O-ethyl ketoxime] is 6.30 to 7.00. `CCO/N=C/c1ccc(OCCCCCN2CCN(c3ccc(Cl)nn3)S2(=O)=O)cc1` [Embodiment 34, (E)-4-((5-(5-(6-chloro-pyridazin-3-yl)-1,1-dioxide-1,2,5-thiadiazolidine-2-yl)-pentyl)-oxy)-benzaldehyde-O-ethyl ketoxime]: the negative-log EC50 (pEC50) is 6.00 to 6.30. The figure for `CCO/N=C/c1ccc(OCCCCCN2CCN(c3nccs3)S2(=O)=O)cc1` [Embodiment 35, (E)-4-((5-(1,1-dioxide-5-(thiazol-2-yl)-1,2,5-thiadiazolidine-2-yl)-pentyl)-oxy)-benzaldehyde-O-ethyl ketoxime] is 6.30 to 7.00; for `CCO/N=C/c1ccc(OCCCCCN2CCN(c3ccnc(NC(C)=O)c3)S2(=O)=O)cc1` [Embodiment 36, (E)-N-(4-(5-(5-(4-((ethoxy-imino)-methyl)-phenoxy)-pentyl)-1,1-dioxide-1,2,5-thiadiazolidine-2-yl)-pyridin-2-yl)-acetamide] it is more than 7.30; for `CCO/N=C/c1ccc(OCCCCCN2CCN(c3ccnc(C(=O)OC)c3)S2(=O)=O)cc1` [Embodiment 37] it is 6.00 to 6.30. The figure for `CCO/N=C/c1ccc(OCCCCCN2CCN(c3cc(N)ncn3)S2(=O)=O)cc1` [Embodiment 38, (E)-4-((5-(5-(6-amino-pyrimidin-4-yl)-1,1-dioxide-1,2,5-thiadiazolidine-2-yl)-pentyl)-oxy)-benzaldehyde-O-ethyl ketoxime] is more than 7.30; for `CCO/N=C/c1ccc(OCCCCCN2CCN(c3ccnc(F)c3)S2(=O)=O)cc1` [Embodiment 39, (E)-4-((5-(5-(2-Fluoro-4-yl)-1,1-dioxide-1,2,5-thiadiazolidine-2-yl)-pentyl)-oxy)-benzaldehyde-O-ethyl ketoxime] it is 7.00 to 7.30. Consider `CCO/N=C/c1ccc(OCCCCCN2CCN(c3ccnc(NCCO)c3)S2(=O)=O)cc1` [Embodiment 40, (E)-4-((5-(5-(2-((2-hydroxyethyl)-amino)-pyridin-4-yl)-1,1-dioxide-1,2,5-thiadiazolidine-2-yl)-pentyl)-oxy)-benzaldehyde-O-ethyl ketoxime], for which the pEC50 is more than 7.30. As to `CCO/N=C/c1ccc(OCCCCCN2CCN(c3ccnc(NC)c3)S2(=O)=O)cc1` [Embodiment 41, (E)-4-((5-(5-(2-(methylamino)-pyridin-4-yl)-1,1-dioxide-1,2,5-thiadiazolidine-2-yl)-pentyl)-oxy)-benzaldehyde-O-ethyl ketoxime], the pEC50 is more than 7.30.
